From US20230012368A1 (Hoffmann-La Roche Inc., priority 2018, published 2023)
Structures can show the parent of a compound that is named as a salt. Where two headings read alike, the source gives them in different places.

Test system: Acinetobacter baumannii ATCC 17978
Test: Antimicrobial susceptibility testing: 90% growth inhibitory concentration (IC90) determination
Type: cell-based
Conditions: 90% growth inhibitory concentration, Acinetobacter baumannii ATCC17978, Iso-Sensitest broth, OD 600 nm over 16h, read-out: ATCC17978 IC90
Outline: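 Growth of the Acinetobacter baumannii strain was followed by optical density at 600 nm every 20 minutes for 16h at 35±2° C. Inoculum was ~5×10^(5) CFU/ml in Iso-Sensitest medium, with twofold compound dilutions (e.g. 50 to 0.097 μM final). The 90% inhibitory concentration was derived in log-phase growth.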

[1] = Acinetobacter baumannii, ATCC17978, 16 h

SMILES	IC90 [1]	IC90
Cc1cc(Nc2nccn3c(-c4ccc(OC(F)F)cc4)cnc23)ccc1C(=O)NCC1CCN(C)CC1 [Example 198, 4-[[3-[4-(difluoromethoxy)phenyl]im-idazo[1,2-a]pyrazin-8-yl]amino]-2-methyl-N-[(1-methylpiperidin-4-yl)methyl]benzamide]	720 nM	–
COc1ccc(-c2cnc3c(Nc4ccc(C(=O)N(C)C)cc4)nccn23)cc1 [Example 231, 4-[[3-(4-methoxyphenyl)imidazo[1,2-a]pyrazin-8-yl]amino]-N,N-dimethylbenzamide]	400 nM	–
COc1ccc(-c2cnc3c(Nc4ccc(C(=O)NCC5CCNCC5)c(Cl)c4)nccn23)c(F)c1F [Example 58, 2-chloro-4-[[3-(2,3-difluoro-4-methoxy-phenyl)imidazo[1,2-a]pyrazin-8-yl]amino]-N-(4-piperidylmethyl) benzamide]	170 nM	–
COc1ccc(-c2cnc3c(Nc4ccc(C(=O)N5CCN(C(=O)[C@@H]6C[C@@](C)(O)CN6)CC5)c(C)c4)nccn23)c(F)c1F [Example 362, [4-[[3-(2,3-difluoro-4-methoxyphenyl)imidazo[1,2-a]pyrazin-8-yl]amino]-2-methylphenyl]-[4-[(2S,4R)-4-hydroxy-4-methylpyrrolidine-2-carbonyl]piperazin-1-yl]methanone]	80 nM	–
CCc1cc(Nc2nccn3c(-c4ccc(Oc5ncccn5)c(F)c4F)cnc23)ccc1C(=O)NCCNC(=O)[C@H](N)CCNC(=N)N [Example 439, N-[2-[[(2R)-2-amino-4-guanidino-butanoyl]amino]ethyl]-4-[[3-(2,3-difluoro-4-pyrimidin-2-yloxy-phenyl)imidazo[1,2-a]pyrazin-8-yl]amino]-2-ethyl-benzamide; formic acid]	–	340 nM
CCc1cc(Nc2nccn3c(-c4ccc(OC)c(F)c4F)cnc23)ccc1C(=O)NCCCCC(=O)NC[C@H]1O[C@H](O[C@@H]2[C@@H](O)[C@H](O[C@H]3O[C@H](CN)[C@@H](O)[C@H](O)[C@H]3O)[C@@H](N)C[C@H]2NC(=O)[C@@H](O)CCN)[C@H](O)[C@@H](N)[C@@H]1O [Example 454, trifluoroacetate]	–	970 nM
CNC(=O)c1ccc(Nc2nccn3c(-c4ccc(Cl)cc4)cnc23)cc1C [Example 185, 4-[[3-(4-chlorophenyl)imidazo[1,2-a]pyrazin-8-yl]amino]-N,2-dimethylbenzamide]	230 nM	–
COc1ccc(-c2cnc3c(Nc4ccc5c(c4)CCN(C)C5=O)nccn23)cc1F [Example 274, 6-[[3-(3-fluoro-4-methoxyphenyl)imidazo[1,2-a]pyrazin-8-yl]amino]-2-methyl-3,4-dihydroisoquinolin-1-one]	240 nM	–
Cc1cc(Nc2nccn3c(-c4ccc(OCC#CCN)cc4)cnc23)ccc1C(=O)N(C)CCC1CCN(C)CC1 [Example 319, 4-[[3-[4-(4-aminobut-2-ynoxy)phenyl]imidazo[1,2-a]pyrazin-8-yl]amino]-N,2-dimethyl-N-[2-(1-methylpiperidin-4-yl)ethyl]benzamide;formic acid]	3300 nM	–
COc1ccc(-c2cnc3c(Nc4ccc(C(=O)NC(CO)CO)c(C)c4)nccn23)cc1 [Example 154]	820 nM	–
CNC(=O)c1ccc(Nc2nccn3c(-c4ccc(OC(F)F)cc4)cnc23)cc1Cl [Example 110, 2-chloro-4-((3-(4-(difluoromethoxy)phenyl)imidazo[1,2-a]pyrazin-8-yl)amino)-N-methylbenzamide]	250 nM	–
Cc1cc(Nc2nccn3c(-c4ccc(OC(F)F)cc4)cnc23)ccc1C(=O)N(CCO)CCO [Example 262, 4-[[3-[4-(difluoromethoxy)phenyl]im-idazo[1,2-a]pyrazin-8-yl]amino]-N,N-bis(2-hydroxyethyl)-2-methylbenzamide]	5000 nM	–
CNC(=O)c1ccc(Nc2nccn3c(-c4ccc(OC(F)F)cc4)cnc23)cc1C [Example 26]	170 nM	–
N#CCOc1ccc(-c2cnc3c(Nc4ccc(C(=O)NCCCN5CCNCC5)c(Cl)c4)nccn23)c(F)c1F [Example 77, 2-chloro-4-((3-(4-(cyanomethoxy)-2,3-difluorophenyl)imidazo [1,2-a]pyrazin-8-yl)amino)-N-(3-(piperazin-1-yl)propyl)benzamide]	100 nM	–
COc1ccc(-c2cnc3c(Nc4ccc(C(=O)N(C)CCCN5CCNCC5)c(C)c4)nccn23)cc1F [Example 275, 4-[[3-(3-fluoro-4-methoxyphenyl)imidazo[1,2-a]pyrazin-8-yl]amino]-N,2-dimethyl-N-(3-piperazin-1-ylpropyl)benzamide]	350 nM	–

More lines, main results first:

IC90 [1]	SMILES	IC90
190 nM	CCc1cc(Nc2nccn3c(-c4ccc(Oc5ncccn5)c(F)c4F)cnc23)ccc1C(=O)NCCCCCN [Example 558, N-(5-aminopentyl)-4-((3-(2,3-difluoro-4-(pyrimidin-2-yloxy)phenyl)imidazo[1,2-a]pyrazin-8-yl)amino)-2-ethylbenzamide formate]	–
260 nM	CCc1cc(Nc2nccn3c(-c4ccc(OC)c(F)c4F)cnc23)ccc1C(=O)NC[C@H](C)N [Example 522, (S)-N-(2-aminopropyl)-4-((3-(2,3-difluoro-4-methoxyphenyl)imidazo[1,2-a]pyrazin-8-yl)amino)-2-ethylbenzamide hydrochloride]	–
560 nM	CCc1cc(Nc2nccn3c(-c4ccc(Oc5ccc(OC)cn5)c(F)c4F)cnc23)ccc1C(=O)NCCNC(=O)[C@H](N)CCNC(=N)N [Example 450, N-[2-[[(2R)-2-amino-4-guanidino-butanoyl]amino]ethyl]-4-[[3-[2,3-difluoro-4-[(5-methoxy-2-pyridyl)oxy]phenyl]imidazo [1,2-a]pyrazin-8-yl]amino]-2-ethyl-benzamide]	–
250 nM	CCc1cc(Nc2nccn3c(-c4ccc(OC)c(F)c4F)cnc23)ccc1C(=O)NCC1(O)CCNC1 (centres unmarked) [Example 528, 4-((3-(2,3-difluoro-4-methoxyphenyl)imidazo[1,2-a]pyrazin-8-yl)amino)-2-ethyl-N-((3-hydroxypyrrolidin-3-yl)methyl)benzamide hydrochloride]	–
270 nM	CCc1cc(Nc2nccn3c(-c4ccc(OC)c(F)c4F)cnc23)ccc1C(=O)NCC1CCN(CC(=O)O)CC1 [Example 559, 2-[4-[[[4-[[3-(2,3-difluoro-4-methoxy-phenyl)imidazo[1,2-a]pyrazin-8-yl]amino]-2-ethyl-benzoyl]amino]methyl]-1-piperidyl]acetic acid]	–
170 nM	N#CCOc1ccc(-c2cnc3c(Nc4ccc(C(=O)NCCCc5ccncc5)c(Cl)c4)nccn23)c(F)c1F [Example 76, 2-chloro-4-[[3-[4-(cyanomethoxy)-2,3-difluoro-phenyl]imidazo[l,2-a]pyrazin-8-yl]amino]-N-[3-(4-pyridyl)propyl] benzamide; 2,2,2-trifluoroacetic acid]	–
270 nM	CCc1cc(Nc2nccn3c(-c4ccc(OC)c(F)c4F)cnc23)ccc1C(=O)N[C@@H](C)CNC(C)=N [Example 480, 4-[[3-(2,3-difluoro-4-methoxyphenyl)imidazo[1,2-a]pyrazin-8-yl]amino]-#N!- [(2#S!)-1-(ethanimidoylamino)propan-2-yl]-2-ethylbenzamide;formic acid]	–
70 nM	CCc1cc(Nc2nccn3c(-c4ccc(OC)c(F)c4F)cnc23)ccc1C(=O)NCCNC(=O)CCCN [Example 360, N-[2-(4-aminobutanoylamino)ethyl]-4-[[3-(2,3-difluoro-4-methoxyphenyl)imidazo[1,2-a]pyrazin-8-yl]amino]-2-ethylbenzamide]	–
410 nM	CCc1cc(Nc2nccn3c(-c4ccc(OC)c(F)c4F)cnc23)ccc1C(=O)NCCNC(=O)[C@@H](N)CCCCN [Example 398, N-[2-[[(2S)-2,6-diaminohexanoyl]amino]eth-yl]-4-[[3-(2,3-difluoro-4-methoxy-phenyl)imidazo[1,2-a]pyrazin-8-yl]amino]-2-ethyl-benzamide; formic acid]	–
360 nM	CCc1cc(Nc2nccn3c(-c4ccc(OC(F)F)c(F)c4F)cnc23)ccc1C(=O)NCC(=O)NCCN(C)C [Example 404, 4-((3-(4-(difluoromethoxy)-2,3-difluorophenyl)imidazo[1,2-a]pyrazin-8-yl)amino)-N-(2-((2-(dimethylamino)ethyl)amino)-2-oxoethyl)-2-ethylbenzamide]	–
190 nM	CCc1cc(Nc2nccn3c(-c4ccc(OC)c(F)c4F)cnc23)ccc1C(=O)NCC(O)CNC(=O)CCN (centres unmarked) [Example 146, N-[3-(3-aminopropanoyl-amino)-2-hydroxy-propyl]-4-[[3-(2,3-difluoro-4-methoxy-phenyl)imidazo[1,2-a]pyrazin-8-yl]amino]-2-ethyl-benzamide hydrochloride]	–
220 nM	CCc1cc(Nc2nccn3c(-c4ccc(OC)c(F)c4F)cnc23)ccc1C(=O)NCC(C)CNC(=O)[C@@H](N)CCNC(=N)N (mixture of isomers) [Example 401, rac-N-(3-((R)-2-amino-4-guanidinobutanamido)-2-methylpropyl)-4-((3-(2,3-difluoro-4-methoxyphenyl)imidazo[1,2-a]pyrazin-8-yl)amino)-2-ethylbenzamide diformate]	–
700 nM	CCc1cc(Nc2nccn3c(-c4ccc(Cl)c(F)c4F)cnc23)ccc1C(=O)NCC1CCNC1 (centres unmarked) [Example 277, 4-[[3-(4-chloro-2,3-difluorophenyl)imidazo[1,2-a]pyrazin-8-yl]amino]-2-ethyl-N-(pyrrolidin-3-ylmethyl)benzamide;hydrochlo-ride]	–
720 nM	CCc1cc(Nc2nccn3c(-c4ccc(Oc5ccccn5)c(F)c4F)cnc23)ccc1C(=O)NCCNC(=O)[C@@H](N)CCNC(=N)N [Example 420, N-[2-[[(2S)-2-amino-4-guanidino-butanoyl]amino]ethyl]-4-[[3-[2,3-difluoro-4-(2-pyridyloxy)phenyl]imidazo [1,2-a]pyrazin-8-yl]amino]-2-ethyl-benzamide; formic acid]	–
